In PubChem BioAssay AID2423 (Broad Institute, 2010) one finds EC50 data, which are given here for 95 molecules.

Where “and” joins values, the source holds several entries; their conditions need not be identical. Equal entries are not always repeated. Records with an inconclusive call do not appear. Calls of active or inactive are those of the source. How the calls were made is not given here.

The test system of the assay is C. albicans CaCi-8 + fluconazole, Alamar Blue growth, 48 h. Briefly: resistant C. albicans growth inhibition with fluconazole, dose response, CaCi-8 strain, Alamar Blue fluorescence (AID 2423).
In the case of `Cc1ccc(C(=O)O/N=C/c2c(N3CCOCC3)n(C)c3ccccc23)cc1`, the EC50 (in general, the concentration at which the effect is half-maximal) was 0.623 µM.
The value for `Cc1cc2c(cc(C(=O)OCC(=O)NCc3ccco3)n2C)s1` was 6.46 µM; that for `NC(=S)n1[nH]c(-c2ccccc2)c(N=Nc2ccccc2C(=O)N2CCOCC2)c1=O` was 8.43 µM.
The value for `COc1cc(-c2nnc(SCc3cc(=O)oc4cc(O)c(O)cc34)o2)cc(OC)c1OC` was 4.39 µM; that for `C[n+]1c(-c2ccccc2)c2cc(N)ccc2c2ccc(N)cc21` was > 16 µM (inactive).
The value for `O=C(NCCCc1ccccc1)Nc1cccc(Cl)c1` was 11.2 µM.
In the case of `CCCC(=O)NC(c1ccco1)c1cc([N+](=O)[O-])c2cccnc2c1O` (stereo not given), the EC50 is 0.84 µM.
`O=C1CC(c2ccccc2)CC(=NCCO)/C1=C(\O)CCCN1C(=O)c2ccccc2C1=O` (stereo not given): the EC50 is > 15 µM (inactive).
On to `Cc1cc(OC(=O)c2ccco2)c2c3c(c(=O)oc2c1)CCCC3`, for which the EC50 was 0.953 µM.
The value for `CCn1cc(/C=C/c2cc[n+](C)cc2)c2ccccc21` was 9.3 µM; that for `CCCCCCCCC(=O)NNC(=O)c1c(O)c2ccccc2n(CC)c1=O` was 1.91 µM.
Then `CCOc1ccccc1C(=O)Nc1ccc2nc3n(c(=O)c2c1)CCCCC3`, with 2.51 µM.
Take `COc1ccc(O)c(/C=N/NC(=O)c2ccc(N3CCCC3=O)cc2)c1`: the EC50 is > 16 µM (inactive).
Then `COc1cnc(-c2ccccn2)nc1Sc1ccccc1Cl`, with > 15 µM (inactive); and `CCNc1nc(N)nc(-c2cc(Cl)ccc2O)n1`, with 1.9 µM.
Turning to `O=[N+]([O-])c1ccc(N/N=C/c2ccc(O)c(O)c2O)c(S(=O)(=O)N2CCOCC2)c1`, the EC50 is 8.26 µM.
Then `Cc1ccc(C(C)C)c(OCc2ccc(C(=O)N/N=C/c3cccc(O)c3O)cc2)c1`, with 0.788 µM.
Then `Cc1ccc(N=Cc2cc(Cc3ccccc3Cl)cc([N+](=O)[O-])c2O)c(O)c1`, with > 15 µM (inactive).
In the case of `CS/C(=N\S(=O)(=O)c1cccs1)Nc1ccc(F)c(Cl)c1`, the EC50 is 1.89 µM.
Then `COc1cc(C(Nc2ccccn2)c2ccc3ccc(C)nc3c2O)cc(OC)c1O` (stereo not given), with 2.02 µM; and `NNC(=O)c1cc(O)c(O)c(O)c1`, with 8.64 µM.
For the molecule `Cc1cc(C(=O)Nc2nc(-c3ccccn3)cs2)ccc1[N+](=O)[O-]`, the EC50 was 0.96 µM.
On to `Nc1ncnc2c1ncn2[C@@H]1O[C@H](CO)C[C@H]1O`, for which the EC50 is > 15 µM (inactive).
The value for `Cc1c(Cl)c([N+](=O)[O-])nn1Cc1ccc(C(=O)N/N=C\c2cc(Cl)ccc2O)o1` was 1.03 µM.
The value for `S=C(NCCN1CCOCC1)NC1CCCC1` was > 15 µM (inactive); that for `COc1cc(SC)ccc1C(=O)OCC(=O)NC1CC1` was > 15 µM (inactive).
With `Cc1cc(NC(=O)COC(=O)[C@@H](NS(=O)(=O)c2ccc(Br)cc2)C(C)C)no1`, the EC50 was > 15 µM (inactive).
The value for `CCC(=O)NC(c1cccs1)c1cc([N+](=O)[O-])c2cccnc2c1O` (stereo not given) was 0.633 µM; that for `CCCOc1cccc(-c2cc(C(=O)NNC(=S)NCC)c3ccccc3n2)c1` was 0.891 µM.
For `Cc1nc2ccccc2cc1OCc1ccccc1`, the EC50 is 1.62 µM.
`Nc1nonc1C(=O)N/N=C/c1cc(Br)ccc1O`: the EC50 was 9.34 µM.
For the molecule `Cc1ccc(C)c(SCC(=O)Nc2nnc(-c3ccccc3)o2)c1`, the EC50 was 2.25 µM.
Then `CCn1c(C)nc2cc(C(=O)N/N=C/c3cccc(OC)c3O)ccc21`, with > 16 µM (inactive); and `CCCc1ccc(Oc2cn[nH]c2-c2ccc(O)cc2O)cc1`, with 8.05 µM; and `Cc1c(Nc2scc(-c3ccccc3)[n+]2-c2ccccc2)c(=O)n(-c2ccccc2)n1C`, with 0.225 µM.
Then `Cc1nn(-c2ccccc2)c(Cl)c1/C=C/C(=O)c1ccc(O)cc1`, with 1.64 µM; and `CCN(Cc1ccccc1)S(=O)(=O)c1ccc(C(=O)Nc2nnc(-c3ccccc3OC)o2)cc1`, with below 0.12 µM.
Then `COc1ccc(-c2cc(=O)oc3cc(OC(=O)C4CCCCC4)c(Cl)cc23)cc1`, with 1.12 µM.
For the molecule `COc1ccc(/C=N/OCC(=O)Nc2nc3ccccc3s2)cc1`, the EC50 was 3.05 µM.
For `COc1cc([N+](=O)[O-])cc(/C=N/NC(=O)c2ccc(NC(=O)c3ccc(C)cc3)cc2)c1O`, the EC50 is 2.34 µM.
Then `Cc1nn(-c2ccccc2)c(C)c1C(=O)Nc1nnc(-c2ccco2)o1`, with 0.421 µM; and `CC(C)C(=O)NC(c1ccco1)c1ccc2cccnc2c1O` (stereo not given), with 1.94 µM; and `COc1cccc(/C=N/NC(=O)c2cc(-c3cccn3C)n[nH]2)c1O`, with 5.64 µM.
The value for `O=C(CN1C(=O)S/C(=C\c2ccccn2)C1=O)Nc1ccccc1` was > 15 µM (inactive); that for `O=C(Nc1nnc(-c2ccco2)o1)c1ccc(Cl)cc1` was 1.16 µM; that for `COc1ccc(C)cc1N=Nc1ccc(O)c2ncccc12` was 0.656 µM.
Consider `O=C(Nc1nnc(SCc2ccc(F)cc2)s1)c1ccccn1`, for which the EC50 was 0.487 µM.
Then `O=C(NCc1ccc(F)cc1)C(c1ccccc1)N(CC1CCCO1)C(=O)Cn1nnc2ccccc21` (stereo not given), with 1.16 µM; and `CN(C)CCCNC(=O)c1ccc(-c2nc(-c3ccc(Cl)cc3)cs2)cc1`, with 2.61 µM.
The value for `Oc1ccc(CN2CCC(Cc3ccccc3)CC2)c2cccnc12` was 1.34 µM.
The value for `COc1cc(/C=C(\C#N)c2nc3ccccc3[nH]2)ccc1O` was 1.49 µM; that for `O=C(N/N=C/c1cc(Br)cc(Cl)c1O)c1ccc2c(c1)OCO2` was 2.75 µM.
For `Cc1ccsc1/C=N/NS(=O)(=O)c1ccc([N+](=O)[O-])cc1`, the EC50 is 7.37 µM.
The value for `O=C(Cc1ccccc1)N/N=C/c1cc(Br)cc(Cl)c1O` was > 15 µM (inactive).
Then `O=C(NCc1ccccc1)C1c2ccccc2Oc2ccccc21`, with 6.03 µM; and `O=C(N/N=C/c1ccc[nH]1)c1cc2ccccc2cc1O`, with 3.94 µM; and `CCOc1ccc(/C=N/NC(=O)c2[nH]ncc2Br)c(O)c1`, with 1.85 µM.
In the case of `O=C(N/N=C/c1ccc(O)c(O)c1O)/C(=C/c1ccc([N+](=O)[O-])cc1)NC(=O)c1ccccc1`, the EC50 is 0.807 µM.
Then `CCCn1c(=N)n(CC(=O)c2ccc([N+](=O)[O-])cc2)c2ccccc21`, with > 16 µM (inactive); and `CCN(CC)c1ccc(/C=N/NC(=O)c2nnn(-c3nonc3N)c2C(C)C)c(O)c1`, with 0.472 µM.
Then `Nc1nc(-c2ccccc2)c(N=Nc2ccccc2Cl)s1`, with 6.25 µM.
Then `CCC(Oc1ccccc1)C(=O)Nc1ncc([N+](=O)[O-])s1` (stereo not given), with > 16 µM (inactive); and `Oc1cccc(C(Nc2nccs2)c2ccc3cccnc3c2O)c1` (stereo not given), with 1.39 µM; and `O=C(NCc1ccccc1)c1sc(=S)n2c1[nH]c(=O)c1ccccc12`, with 0.948 µM.
In the case of `O=C(CCS(=O)(=O)c1ccc(Cl)cc1)Nc1nc(-c2ccncc2)cs1`, the EC50 is 0.709 µM.
The value for `CCOC(=O)N1CCN(Cc2cc(Cl)c3cccnc3c2O)CC1` was 1.91 µM; that for `CC1(C)CC(=O)C2=C(C1)c1c(ccc3ccccc13)NC2c1cc([N+](=O)[O-])cc([N+](=O)[O-])c1O` (stereo not given) was > 15 µM (inactive).
The value for `O=C(NNC(=O)c1ccc2ccccc2c1O)c1ccccc1Cl` was 6.11 µM; that for `CC1=C(C(N)=O)C(c2ccc(C)o2)C(C(N)=O)=C(C)N1` was > 16 µM (inactive); that for `C=C(C)c1cccc(C(C)(C)NC(=O)Nc2ccc(C(N)=O)cc2)c1` was > 15 µM (inactive).
Then `Cc1ccc(Nc2nc(NCc3ccco3)c3ccccc3n2)cc1`, with 2.44 µM.
With `COC(=O)C1CCN(Cc2c(C(=O)N3C[C@@H](C)O[C@@H](C)C3)nc3ccc(Cl)cn23)CC1`, the EC50 is > 15 µM (inactive).
Then `O=C(N/N=C/c1cc([N+](=O)[O-])ccc1O)C(O)(c1ccccc1)c1ccccc1`, with 5.79 µM; and `COc1ccc(C(c2c(O)ccc3ccccc23)N2CCOCC2)c(OC)c1` (stereo not given), with 2.85 µM.
The value for `COCCSc1nnc(NC(=O)C2CC(=O)N(c3ccc(C)cc3)C2)s1` (stereo not given) was > 16 µM (inactive); that for `Cc1nnc(NC(=O)c2ccc(S(=O)(=O)N(C)Cc3ccccc3)cc2)o1` was 0.808 µM.
The value for `CCOc1ccc(/C=C/C2=CC(C)(C)NC(=S)N2)cc1` was 1.16 µM; that for `Cc1ccc(NS(=O)(=O)c2ccc(CCC(=O)NCCO)cc2)cc1` was > 15 µM (inactive); that for `O=C(CCS(=O)(=O)c1ccccc1)Nc1ncc([N+](=O)[O-])s1` was > 15 µM (inactive).
Take `CCOCCCNC(=O)c1ccc(N(C)S(=O)(=O)c2ccc(OC)cc2)cc1`: the EC50 is > 16 µM (inactive).
Then `Cc1cc(C)c(S(=O)(=O)Nc2cccc(-n3cnnn3)c2)c(C)c1`, with 13 µM.
The value for `CCCNC(=O)c1ccc2c(=O)c(O)c(-c3cccc(Br)c3)[nH]c2c1` was 3.04 µM; that for `COc1cccc(-c2nnc(NC(=O)c3ccc4ncsc4c3)o2)c1` was 1.03 µM; that for `Cc1nc(-n2[nH]c3c(c2=O)CCCC3)[nH]c(=O)c1Cc1ccccc1` was 0.541 µM.
Then `Cc1ccc(/C=C/C(=O)c2ccccc(=O)c2O)c(C)c1`, with 1.26 µM; and `O=C(/C=C/c1cc(Br)ccc1O)c1ccco1`, with 0.458 µM.
Consider `COc1cccc(/C=N/NC(=O)C(=O)Nc2ccccc2OC(F)(F)C(F)F)c1O`, for which the EC50 is 1.02 µM.
Take `COC(=O)Cn1nc(-c2ccccc2)c2ccccc21`: the EC50 is 2.28 µM.
Then `CCN(CC)S(=O)(=O)c1cc(OC)ccc1N=Nc1ccc(O)c2ncccc12`, with 1.56 µM.
The value for `C=CCc1cccc(/C=N/NC(=O)CNc2cccc3ccccc23)c1O` was 3.11 µM; that for `CCC(C)(C)c1ccc(OCCCC[n+]2cccc(C)c2C)c(C(C)(C)CC)c1` was > 16 µM (inactive); that for `NC(=NCCCCCCN=C(N)/N=C(\N)Nc1ccc(Cl)cc1)/N=C(\N)Nc1ccc(Cl)cc1` was 0.741 µM and 1.51 µM and 2.13 µM.
Then `C=CCOc1ccc(/C=C2\SC(=S)N(NS(=O)(=O)c3ccc(C)cc3)C2=O)cc1`, with 3.29 µM; and `Cc1nc2ccccc2cc1OCc1ccc(F)cc1`, with 0.909 µM.
In the case of `Oc1c(CN2CCN(c3ccccc3)CC2)cc(Br)c2cccnc12`, the EC50 was 1.23 µM.
